Data: publication PMC11167047 (Cell Death Discovery, 2024)

Assays:
[1] = tested on: Ramos cells; assay: BrdU cell proliferation assay; assay type: cell-based, human; conditions: 24 h, non-lethal doses
Protocol: The Bromodeoxyuridine (BrdU) Cell Proliferation kit from Millipore (#QIA58-1000TEST) was used to measure proliferation of cells. The manufacturer protocol has been optimized as described in the following. 1 × 10^4 cells per well were seeded in a 96-well plate. The cells were pre-incubated with the compounds of interest for 1 h. Following this, the BrdU solution was added and the cells were incubated for a total of 24 h. BrdU is an analog of the nucleoside thymidine and is incorporated into the DNA of dividing cells during replication. Culture medium was removed and cells were fixed and denatured with Fixative/Denaturing solution for 30 min at room temperature. Since suspension cells were used, they had to be centrifuged at 1200 rpm for 5 min after each following step. After, the anti-BrdU-antibody was incubated for 1 h at RT. Cells were washed three times with washing buffer. The secondary antibody, which is coupled to HRP (horseradish peroxidase) was incubated for 30 min at RT. Again, cells were washed three times with washing buffer.
Then, the substrate solution was added, that contained TMB (3,3’,5,5’-Tetramethylbenzidine), which is oxidized by HRP. Oxidation of TMB causes a color change from colorless to blue. The intensity of color change is correlated with the number of bound peroxidases, which depends on the quantity of primary antibodies and therefore on the content of the incorporated BrdU. If the cells are not proliferating, no BrdU is incorporated, resulting in a weak signal.
After 15 min incubation time the stopping reagent was added, causing a pH change and resulting in a color change from blue to yellow. The colored reaction product was quantified at 450 nm using a spectrophotometer. For all measurements, three technical replicates were made. The control was set to 100% proliferation, and the treated cells were normalized to the control. The results were visualized using GraphPad Prism 7.

[2] = tested on: CLL17 chronic lymphocytic leukemia cells; conditions: read-out: IC50 (CLL17); primary patient cells, 24 h
From the text: For chronic lymphocytic leukemia, mononuclear cells were isolated from peripheral blood using a Ficoll gradient (GE Healthcare). Primary cells from other lymphoma entities were isolated as previously described [80]. All cells were cryopreserved after isolation and thawed as previously described [81].
The resazurin reduction assay, which is also known as AlamarBlue® assay, was used for the determination of cell viability in all cytotoxicity determinations shown in the present work, as previously described [22]. Briefly, cells were seeded at a specific density depending on the incubation time (24 h: 1 × 10^6 cells/ml) in a 96-well plate and incubated with increasing compound concentrations (0.01–30 µM). After the specified treatment time, resazurin (Sigma, #R7017) was added to a final concentration of 40 µM. […] The viability of control cells was set to 100% and all other values were normalized to the control condition, the dose-response curves were then fitted with Prism v7.01 (GraphPad software, La Jolla, CA, USA).

[3] = tested on: 335 wild-type protein kinases; assay: kinome screen, selectivity score; assay type: biochemical
Protocol: The Kinome Screening was performed by Reaction Biology Europe GmbH (http://reactionbiology.com; Freiburg i. Br., Germany). […] A kinase inhibition profile of the three meriolins was determined by measuring residual activity at two concentrations each in single values in 335 wild-type protein kinase assays.
The selectivity score was calculated as: SelectivityScore=Countofdatapoints<50%/(Totalnumberofdatapoints)

[4] = tested on: HeLa cells; assay: EdU incorporation by microscopy; assay type: cell-based, human; conditions: 24 h, non-lethal dose (IC25)
Protocol: The EdU-assay, utilizing the EdU-click 488 kit from Baseclick GmbH (#BCK-TCell-FC488) was performed according to manufacturer’s instructions. The EdU-assay is employed to measure the incorporation of 5-ethynyl-2’-deoxyuridine (EdU) into DNA, providing a means to assess cell proliferation. Cell proliferation involves the synthesis of new DNA during the S phase of the cell cycle. When cells are exposed to 5-EdU, they incorporate the compound into their DNA at thymidine bases during S phase. A fluorophore-labeled azide reacts with the incorporated EdU, enabling its detection through microscopy (sigmaaldrich.com). The experimental process involves seeding cells and allowing them to grow to the desired density, applying the indicated treatments, and subsequently adding EdU to the media. After fixation and permeabilization, the EdU detection, along with DAPI-stained nuclei, is carried out using fluorescence microscopy.

[5] = tested on: CDK9 and cyclin T1 protein levels; assay: immunoblotting of CDK9 and cyclin T1 in Ramos cells; assay type: cell-based, human; conditions: 0.1 and 1 µM, 4-24 h
Protocol: (§1) Cells were seeded at a density of 2 × 10^6 cells, treated as specified and harvested by centrifugation at 3000 rpm for 5 min, followed by freezing in liquid nitrogen. The cell pellets were thawed on ice and quick-frozen and defrozen in liquid nitrogen for three times, then lysed on ice in lysis buffer (20 mM Tris-HCl, 150 mM NaCl, 1% v/v Triton X-100, 0.5 mM EDTA, 10 mM NaF, 2.5 mM Na4P2O7, protease inhibitor (Sigma, #P2714)) for 30 min, accompanied by vortexing. Subsequently, centrifugation 13,300 rpm for 15 min purified cell lysates from cell debris. The supernatant was transferred to a new tube and the protein concentration was determined by Bradford assay. The samples were diluted with sample buffer. SDS-Page and Western Blot were conducted in accordance with standard workflows. […] The antibody baths were stored at 4 °C and re-used.
(§2) The density of the individual protein band was determined using Image Studio^TM Lite Version 5.2. The density of each protein was divided by the average of all bands of this protein. The ratios of the protein of interest were normalized to the ratio of the respective loading control. To determine the fold change, each normalized ratio was divided by the normalized band of the control line (untreated cells). Fold change is 1 for the control line, n ≥ 2. The results are shown as mean ± standard deviation and were visualized with GraphPad Prism 7.

[6] = tested on: MOLT4; conditions: read-out: IC50 (MOLT4); cytotoxicity, 24 h
Protocol: The resazurin reduction assay, which is also known as AlamarBlue® assay, was used for the determination of cell viability in all cytotoxicity determinations shown in the present work, as previously described [22]. Briefly, cells were seeded at a specific density depending on the incubation time (24 h: 1 × 10^6 cells/ml) in a 96-well plate and incubated with increasing compound concentrations (0.01–30 µM). After the specified treatment time, resazurin (Sigma, #R7017) was added to a final concentration of 40 µM. […] The viability of control cells was set to 100% and all other values were normalized to the control condition, the dose-response curves were then fitted with Prism v7.01 (GraphPad software, La Jolla, CA, USA). The reduction of resazurin to resorufin is proportional to aerobic respiration; therefore, it is used as a measure for the cell viability and cytotoxicity of a tested compound.

[7] = molecular target: T1, CDK1/cyclin B1 (Homo sapiens, UniProt P06493); assay: luminescence-based kinase activity assay; assay type: biochemical; conditions: result in words
T1 construct: purchased BPS Bioscience #79597
T1 sequence (P06493 whole entry): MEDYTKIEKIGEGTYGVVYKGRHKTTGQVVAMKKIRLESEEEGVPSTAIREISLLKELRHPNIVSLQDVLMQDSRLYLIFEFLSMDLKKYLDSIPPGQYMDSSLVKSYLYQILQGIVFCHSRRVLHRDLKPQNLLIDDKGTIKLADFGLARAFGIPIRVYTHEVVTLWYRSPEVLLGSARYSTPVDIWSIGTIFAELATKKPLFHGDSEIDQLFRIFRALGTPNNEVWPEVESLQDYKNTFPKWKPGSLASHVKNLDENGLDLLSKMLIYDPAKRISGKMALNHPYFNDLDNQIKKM
T1 sequence (P14635 whole entry partner): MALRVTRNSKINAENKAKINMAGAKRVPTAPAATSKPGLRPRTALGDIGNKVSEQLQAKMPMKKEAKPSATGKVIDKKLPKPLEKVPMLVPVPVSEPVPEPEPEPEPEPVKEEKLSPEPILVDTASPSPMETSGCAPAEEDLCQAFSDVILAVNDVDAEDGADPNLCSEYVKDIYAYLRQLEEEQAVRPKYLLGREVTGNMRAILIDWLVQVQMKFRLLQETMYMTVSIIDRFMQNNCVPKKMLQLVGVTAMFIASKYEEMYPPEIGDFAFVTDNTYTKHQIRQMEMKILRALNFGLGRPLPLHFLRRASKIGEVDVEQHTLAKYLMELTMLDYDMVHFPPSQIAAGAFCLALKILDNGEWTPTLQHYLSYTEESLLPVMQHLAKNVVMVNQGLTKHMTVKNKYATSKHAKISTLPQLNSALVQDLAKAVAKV
Protocol: (§3) The activity of specific CDKs and their cyclins was assessed using CDK Kits from BPS Bioscience (CDK1/cyclin B1 #79597; CDK2/cyclin A2 #79599; CDK9/cyclin T #79628). The assay was conducted following the manufacturer’s guidelines. In summary, the CDK/cyclin complexes, as purified recombinant enzymes, were allowed to react with CDK substrate peptide, ATP, and kinase buffer in the presence or absence of meriolins. The reaction was initiated by adding diluted CDK/cyclin enzyme to the wells and incubating for 45 min at 30 °C. After the incubation, the Kinase-Glo-Max® reagent was added as a detection reagent, and the resulting luciferase reaction produced luminescence, which was inversely correlated with the kinase activity.
(§4) The luminescent CDK/cyclin assay is a method that quantifies the amount of ATP remaining in the solution after a kinase reaction. Luminescence was measured using the Synergy Mix microplate reader as an endpoint measurement. Data analyses were performed according to the manufacturer’s instructions, and statistical analysis was carried out using one-way ANOVA, with corrections made by Bonferroni’s multiple comparison test. The significance level was indicated as ****p ≤ 0.0001.

[8] = molecular target: T2, CDK9/cyclin T (Homo sapiens, UniProt P50750); assay: luminescence-based kinase activity assay; assay type: biochemical; conditions: result in words
T2 construct: purchased BPS Bioscience #79628
T2 sequence (P50750 whole entry): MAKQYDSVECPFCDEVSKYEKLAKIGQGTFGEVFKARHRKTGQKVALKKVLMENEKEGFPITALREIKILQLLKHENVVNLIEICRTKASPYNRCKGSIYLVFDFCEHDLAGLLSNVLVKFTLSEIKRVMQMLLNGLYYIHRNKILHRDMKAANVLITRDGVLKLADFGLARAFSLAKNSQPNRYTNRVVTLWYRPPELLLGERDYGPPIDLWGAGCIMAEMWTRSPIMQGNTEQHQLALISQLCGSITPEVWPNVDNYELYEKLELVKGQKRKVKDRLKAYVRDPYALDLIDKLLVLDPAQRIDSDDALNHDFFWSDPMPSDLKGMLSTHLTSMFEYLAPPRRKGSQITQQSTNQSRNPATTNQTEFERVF
T2 sequence (O60563 whole entry partner): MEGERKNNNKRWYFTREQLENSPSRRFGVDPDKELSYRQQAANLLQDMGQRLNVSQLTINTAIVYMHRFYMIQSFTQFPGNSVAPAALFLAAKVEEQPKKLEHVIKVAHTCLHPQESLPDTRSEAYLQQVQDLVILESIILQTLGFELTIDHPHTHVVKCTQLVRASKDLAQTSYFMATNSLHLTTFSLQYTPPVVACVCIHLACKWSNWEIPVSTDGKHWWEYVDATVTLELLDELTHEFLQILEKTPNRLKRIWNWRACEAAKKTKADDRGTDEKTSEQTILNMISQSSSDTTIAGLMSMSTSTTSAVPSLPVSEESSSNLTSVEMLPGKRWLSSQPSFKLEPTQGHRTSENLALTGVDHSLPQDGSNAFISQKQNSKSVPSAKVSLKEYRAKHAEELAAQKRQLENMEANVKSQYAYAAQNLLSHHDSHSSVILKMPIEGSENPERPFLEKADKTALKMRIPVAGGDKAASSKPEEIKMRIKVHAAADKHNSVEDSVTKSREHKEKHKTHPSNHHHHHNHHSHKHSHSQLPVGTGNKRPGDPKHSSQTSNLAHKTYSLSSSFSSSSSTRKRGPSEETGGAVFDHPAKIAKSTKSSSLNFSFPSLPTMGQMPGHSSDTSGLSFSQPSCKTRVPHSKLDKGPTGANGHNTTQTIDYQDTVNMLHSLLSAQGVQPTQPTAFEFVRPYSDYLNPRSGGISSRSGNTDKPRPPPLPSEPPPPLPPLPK
Protocol: as §3, §4

[9] = molecular target: T3, CDK2/cyclin A2 (Homo sapiens, UniProt P24941); assay: luminescence-based kinase activity assay; assay type: biochemical; conditions: result in words
T3 construct: purchased BPS Bioscience #79599
Protocol: as §3, §4

[10] = tested on: retinoblastoma (RB) protein phosphorylation; assay: immunoblotting of phospho-RB in Ramos cells; assay type: cell-based, human; conditions: for phosphorylation of RB at p-Ser249 and p-Thr252: 0.1 or 1 µM (R547 1 µM)
Protocol: as §1, §2

SMILES	proliferation (BrdU incorporation) [1]	IC50 [2] [nM]	Selectivity Score (< 50% residual activity) ([3]; 0.03 µM)	Selectivity Score (< 50% residual activity) ([3]; 0.3 µM)	EdU incorporation (proliferation) reduced to [4] [%]	CDK9 and cyclin T1 protein levels [5]	IC50 [6] [nM]	inhibition of CDK1/cyclin B1 [7]	inhibition of CDK9/cyclin T [8]	inhibition of CDK2/cyclin A2 [9]	phosphorylation of RB at p-Ser612 and p-Thr821 ([10]; 0.1 and 1 µM, up to 24 h)	phosphorylation of RB at p-Ser612 and p-Thr821 ([10]; 0.1 and 1 µM, up to 24 h, listed as Meriolin 16)	phosphorylation of RB at p-Ser249 and p-Thr252 ([10]; up to 24 h)	Selectivity Score (< 50% residual activity) ([3]; 3 µM)	phosphorylation of RB at Ser612 ([10]; 0.1 and 1 µM)	phosphorylation of RB at p-Thr821 ([10]; 0.1 and 1 µM (R547 1 µM), up to 24 h)
COc1ccnc2[nH]cc(-c3cc(N)nc(N)c3)c12 [meriolin 16]	substantial decrease in proliferation	50	0.140	0.284	10	decrease	20	inhibited	inhibited	inhibited	no longer phosphorylated	loss of the phosphorylations	reduced the phosphorylation			
c1ccc(CNc2cc(-c3c[nH]c4ncccc34)ccn2)cc1 [meriolin 36]	substantial decrease in proliferation	110		0.397	10	relatively stable	3480	inhibited	inhibited	inhibited	This effect was not observed		no effect	0.752	increase of the phosphorylation	no notable change
